Results taken from patent EP2108642A1, “JAK INHIBITOR” (Kyowa Hakko Kirin Co., Ltd., priority 2006, dated 2008).
Structures can show the parent of a compound that is named as a salt.

Legend:
human JAK2 = biological target: T1, human JAK2 (Homo sapiens, UniProt O60674); assay: JAK2 enzyme inhibitory activity (time-resolved fluorescence kinase assay with biotinylated Lyn-substrate peptide); type: biochemical; conditions: at a concentration of 1 µmol/L; His-tagged JAK2 (826-1132 amino acids), 10 µmol/L ATP, 30°C, 60 minutes
T1 construct: a functional domain (826-1132 amino acids) of human JAK2
T1 sequence (O60674 826-1132): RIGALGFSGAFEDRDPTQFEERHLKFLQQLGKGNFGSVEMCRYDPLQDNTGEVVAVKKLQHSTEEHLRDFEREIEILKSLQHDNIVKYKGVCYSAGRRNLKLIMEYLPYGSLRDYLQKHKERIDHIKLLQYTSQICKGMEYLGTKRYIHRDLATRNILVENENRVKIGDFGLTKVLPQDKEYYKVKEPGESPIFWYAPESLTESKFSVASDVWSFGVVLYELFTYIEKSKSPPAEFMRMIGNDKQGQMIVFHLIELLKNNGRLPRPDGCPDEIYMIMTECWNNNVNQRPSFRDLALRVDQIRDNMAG
Procedure: In order to measure the JAK2 enzyme inhibitory activity, the following process was employed. […] The relative activity (%) of the well containing the test compound was calculated by assuming the activity of the well of the enzyme to which 0.1% DMSO was added as 100% and the activity of the well to which no enzyme was added as 0%, and the difference between 100 and the obtained value was assumed to be the JAK2 inhibition ratio (%) of the test compound.

[1] = test system: human acute myeloid leukemia cell line (HEL92.1.7) having a JAK2 V617F mutation; assay: Cell growth inhibitory activity against human acute myeloid leukemia cell line (WST-1 assay); type: cell-based; conditions: at a concentration of 10 µmol/L against HEL92.1.7, 72 hours culture
Procedure: Test Example 2: Cell growth inhibitory activity against human acute myeloid leukemia cell line
The cell growth inhibitory activity of test compound against a human acute myeloid leukemia cell line (HEL92.1.7) (ATCC No. TIB-180) having a JAK2 V617F mutation was measured according to the following process.
A Roswell Park Memorial Institute's Medium (RPMI) 1640 medium (GIBCO, catalog No. 11875-093) containing 10% fetal bovine serum (GIBCO, catalog No. 10437-028) was used to culture each cells. HEL92.1.7 cells controlled at 2. 5 × 10^4 cells/mL were inoculated into a TC MICROWELL 96U plate (Nalge Nunc, catalog No. 163320) at 80 µL per well, and were cultured at 37°C for 4 hours in a 5% carbon dioxide gas incubator. Then, 20 µL per well of DMSO solutions of test compounds adjusted to a final concentration of 10 µmol/L were added to the HEL92.1.7 cells, and the resulting mixtures were cultured again at 37°C for 72 hours in a 5% carbon dioxide gas incubator. Finally, 25 µL of WST-1 reagent {4-[3-(4-indophenyl)-2-(4-nitrophenyl)-2H-5-tetrazolio]-1,3-benz ene disulfonate sodium salt} (Roche Diagnostics K.K., catalog No. 1644807) diluted to 40% with the medium described above was added, and incubation was conducted at 37°C for 2 hours, followed by measuring absorbance at 450 nm (reference wavelength: 690 nm) with a microplate spectrophotometer SPECTRA max 340PC (Molecular Devices). As for the cell growth inhibition ratio, the relative activity (%) of the well containing a test compound was calculated by assuming the activity of the well in which […] a medium to which only DMSO was added as 0%, and then the difference between 100 and the obtained value was assumed as the growth inhibition ratio (%) of the test compound. The higher the value, the stronger the growth inhibition activity against the cells.

Row | JAK2 inhibition ratio (human JAK2) | Compound | cell growth inhibition ratio [1]
1 | ≥ 50% | CCN(CC)Cc1ccc2[nH]c(-c3cc(CN(C)C)cc4c3C(=O)NC4)cc2c1 [Compound 504, 5-(Dimethylaminomethyl)-7-[1H-5-(diethylaminomethyl)indol-2-yl)i soindolinone] | ≥ 50%
2 | ≥ 50% | CC(C)Oc1cc2c(c(-c3cc4cc(CN5CCCCC5)ccc4[nH]3)c1)C(=O)NC2 [Compound 484, 5-(2-Propyloxy)-7-[1H-5-(piperidinomethyl)indol-2-yl]isoindolinone hydrochloride] | ≥ 50%
3 | ≥ 50% | CN(C)Cc1cc2c(c(-c3cc4cc(CN5CCN(CCO)CC5)ccc4[nH]3)c1)C(=O)NC2 [Compound 483, 5-(Dimethylaminomethyl)-7-{1H-5-[4-(2-hydroxyethyl)piperazin-1-ylmethyl]indol-2-yl}isoindolinone trihydrochloride] | ≥ 50%

The next lines start with the compound.

Row | Compound | JAK2 inhibition ratio (human JAK2) | cell growth inhibition ratio [1]
4 | CN(C)Cc1cc(-c2cc3cc(CN4CCCCC4)ccc3[nH]2)c2c(c1O)CNC2=O [Compound 562, 4-Hydroxy-5-(dimethylaminomethyl)-7-[1H-5-(piperidinomethyl)indol-2-yl]isoindolinone dihydrochloride] | ≥ 50% | ≥ 50%
5 | CC(C)Nc1cc2c(c(-c3cc4cc(CN5CCCCC5)ccc4[nH]3)c1)C(=O)NC2 [Compound 509, 5-(2-Propylamino)-7-[1H-5-(piperidinomethyl)indol-2-yl)isoindoli none dihydrochloride] | ≥ 50% | ≥ 50%
6 | CC(C)Oc1cc2c(c(-c3ccc[nH]3)c1)C(=O)NC2 [Compound 571, 5-(2-Propyloxy)-7-(1H-pyrrol-2-yl)isoindolinone] | ≥ 50% | ≥ 50%
7 | CCN(CC)Cc1ccc2[nH]c(-c3cc(C(O)C(C)C)cc4c3C(=O)NC4)cc2c1 (centres unmarked) [Compound 555, 5-(1-Hydroxy-2-methylpropyl)-7-[1H-5-(diethylaminomethyl)indol-2-yl]isoindolinone hydrochloride] | ≥ 50% | ≥ 50%
8 | O=C1NCc2c(C#CCCO)ccc(-c3cc4cc(CN5CCCCC5)ccc4[nH]3)c21 [Compound 320, 4-(4-Hydroxy-1-butynyl)-7-[1H-5-(piperidinomethyl)indol-2-yl]iso indolinone hydrochloride] | ≥ 50% | ≥ 50%
9 | Cc1cc(O)ccc1-c1cc2c(c(-c3cc4cc(CN5CCCCC5)ccc4[nH]3)c1)C(=O)NC2 [Compound 550, 5-(4-Hydroxy-2-methylphenyl)-7-[1H-5-(piperidinomethyl)indol-2-yl]isoindolinone] | ≥ 50% | ≥ 50%
10 | O=C1NCc2c(-c3ccc(O)cc3)ccc(-c3cc4cc(CN5CCCCC5)ccc4[nH]3)c21 [Compound 305, 4-(4-Hydroxyphenyl)-7-[1H-5-(piperidinomethyl)indol-2-yl]isoindo linone hydrochloride] | ≥ 50% | ≥ 50%
